Source: patent US5750362A, “Methods for identifying substances with a potential herbicidal or growth-regulating action by means of plant transporter proteins, the use of the transporter proteins, and substances with a herbicidal and growth-regulating action” (BASF Aktiengesellschaft, priority 1993, dated 1998)
Where two headings read alike, the source gives them in different places.

Columns and labels:
[1] = molecular target: T1, amino-acid transporter AAP2 (Arabidopsis thaliana, UniProt Q38967); assay: Uptake of radiolabeled L-proline by yeast mutant 22457d-AAP2 expressing the plant amino-acid transporter; type: cell-based; details: read-out: Activity relative to control [%]
T1 construct: expressed in transfected cells; host or cells: Saccharomyces cerevisiae mutant 22574d (also printed 22457d)
T1 sequence (Q38967 1-493): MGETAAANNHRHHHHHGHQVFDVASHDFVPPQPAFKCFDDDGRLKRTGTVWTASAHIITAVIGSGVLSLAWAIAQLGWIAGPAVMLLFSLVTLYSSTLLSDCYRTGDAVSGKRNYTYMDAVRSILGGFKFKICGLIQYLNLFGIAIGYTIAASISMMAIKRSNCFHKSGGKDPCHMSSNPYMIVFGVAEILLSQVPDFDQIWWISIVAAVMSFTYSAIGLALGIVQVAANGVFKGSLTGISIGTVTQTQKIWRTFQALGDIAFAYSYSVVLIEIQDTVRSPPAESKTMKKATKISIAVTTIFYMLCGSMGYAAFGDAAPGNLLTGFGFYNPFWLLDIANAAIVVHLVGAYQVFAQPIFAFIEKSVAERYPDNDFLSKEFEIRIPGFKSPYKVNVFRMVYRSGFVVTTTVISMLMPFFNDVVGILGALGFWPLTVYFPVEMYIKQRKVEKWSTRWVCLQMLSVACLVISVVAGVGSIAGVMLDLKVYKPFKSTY
Experimental: Transporter investigations are carried out on the yeast mutant 22574d (Jauniaux & Grenson, Eur. J. Biochem. 190: 39-44, 1990), which harbors a mutation in the gene for amino-acid permease, and on the yeast mutant JT 16 (Tanaka and Fink, Gene 38: 205-214, 1985) which is incapable of histidine uptake, for identification of inhibitors of plant amino-acid transporters. These mutants are transformed with cDNA sequences which code for plant amino-acid transporters and lead to expression of functional transporters in the yeast cells. The cDNA sequences are cDNA sequences which code for the amino-acid transporters AAP1 and AAP2 from Arabidopsis thaliana (Frommer et al., 1993, Proc. Natl. Acad. Sci. USA 90: 5944-5948; Kwart et al., 1993, Plant J. 4:993-1002). For the measurements, cells of these mutants are cultured in minimal medium (NAAG+5 mmol/l proline) at 28° C. and harvested in the logarithmic phase (OD600 =0.6). The cells are spun down in a centrifuge at 4000 rpm and 4 degrees Celsius for 10 minutes and washed 2× with AUB buffer (modified AAB buffer, Ljungdahl et al.). The cell concentration is adjusted to an OD600 of 25 in AUB buffer.
100 μl portions of the cell suspension are mixed with 100 μl of a 1 mmol/l L-proline solution (18.5 kBq of L-[14C]-proline) and various concentrations of the appropriate substance to be investigated. After 20, 60, 120 and 180 seconds, a 50 μl aliquot is removed, diluted in 4 ml -of ice-cold AUB buffer and filtered through glass fever [sic] filter. In order to remove nonspecifically bound L-[14C]-proline, the cells are washed 2× with 4 ml of ice-cold water each time. The radioactivity retained on the glass filter is then measured in a liquid scintillation counter. The radioactivity reflects the amount of radiolabeled proline taken up by the cells. Uptake of radiolabeled proline without addition of a potential inhibitor is determined as one control. Cells of each of the mutants 22574d and JY 16 which have not been transformed with cDNA sequences coding for plant amino-acid transporters are used as further control. Results of measurements of this type on the mutants 22457d-AAP2 which expresses the amino-acid transporter AAP2 from Arabisopsis [sic] thaliana are shown in the following table.
For the investigations, yeast cells of the strain 22457d were transformed with a cDNA sequence which codes for the amino-acid transporter AAP2, and the uptake of radiolabeled proline in the presence of various substances was determined. The various substances tested, their concentration, and the activity of the transporter, shown as percentage activity of the control with which no potential inhibitors were added, are indicated.

[2] = molecular target: T2, ammonium transporter AMT1 (Arabidopsis thaliana, UniProt P54144); assay: cell-based
T2 construct: expressed in transfected cells; host or cells: Saccharomyces cerevisiae 26972c (mutations in MEP1 and MEP2)
T2 sequence (P54144 1-501): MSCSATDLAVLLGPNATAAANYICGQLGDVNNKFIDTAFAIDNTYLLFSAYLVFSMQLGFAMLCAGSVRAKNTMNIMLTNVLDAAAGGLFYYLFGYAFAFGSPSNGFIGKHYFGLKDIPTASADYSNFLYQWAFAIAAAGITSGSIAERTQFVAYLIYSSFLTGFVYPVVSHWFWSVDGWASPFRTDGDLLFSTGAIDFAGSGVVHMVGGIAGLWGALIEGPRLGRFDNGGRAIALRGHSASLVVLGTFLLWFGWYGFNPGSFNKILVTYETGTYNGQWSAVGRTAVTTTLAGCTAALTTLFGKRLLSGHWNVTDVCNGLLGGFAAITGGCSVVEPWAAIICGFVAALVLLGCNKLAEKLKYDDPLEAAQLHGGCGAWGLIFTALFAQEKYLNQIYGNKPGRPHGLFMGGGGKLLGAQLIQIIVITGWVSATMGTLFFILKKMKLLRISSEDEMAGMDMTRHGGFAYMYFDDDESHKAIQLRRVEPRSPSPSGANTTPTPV
Experimental: The measurements of transport identify inhibitors of plant ammonium transporters are carried out with the structural analog methylamine because radiolabeled ammonium is not commercially obtainable.
The yeast cells are transformed by standard methods with cDNA sequences which code for an ammonium transporter from plants and which permit expression of a functional transporter in the yeast cells. […] The cells are cultured in NAAG-medium (2% glucose, 1.7 g/l yeast nitrogen-base w/o amino acids and ammonium sulfate (Difco), supplemented with 500 μg/ml L-proline) at 28 degrees Celsius, and harvested in the logarithmic phase (OD660.=0.6). The cells are then spun down in a centrifuge at 4000 rpm and 4 degrees Celsius for 10 minutes, washed twice with 20 mM sodium phosphate buffer, pH 7, and taken up in the same buffer to an 0D660 of 8. 200 μl aliquot fractions of the cell suspension are taken. 5 minutes before the actual measurement,the yeasts are activated by addition of 100 mM glucose and incubated at 30 degrees Celsius. To start the reaction, 100 μl of the cell suspension are added to 100 µl of reaction mixture (20 mM Na phosphate buffer, pH7; 18.5 kBq of [^14 C]-methylamine (NEN); 100 M methylamine; substance to be tested depending on the experiment (see FIG. 4)). In each case 10, 60, 120 and 180 seconds after starting the reaction, 50 μl aliquots are taken, added to 4 ml of ice-cold 5 mM methylamine solution and filtered on glass fibre filters. After the filters have been washed with a further 8 ml of a methylamine solution, the radioactivity on the filters is subsequently determined in a liquid scintillation counter. Inhibitors are added 60 seconds before adding the glucose.
The uptake of radiolabeled methylamine without addition of a potential inhibitor is determined as one control.

[3] = molecular target: T3, sucrose transporter P62 (StSUT1) (Solanum tuberosum, UniProt Q43653); assay: [14C]-sucrose uptake by yeast strain SUSY-7-P62 (StSUT1) expressing the potato sucrose transporter; type: cell-based; details: pH 3.8, read-out: Activity relative to the control [%]
T3 construct: whole-cell [14C]-sucrose uptake; no tag or borders given
T3 sequence (Q43653 1-516): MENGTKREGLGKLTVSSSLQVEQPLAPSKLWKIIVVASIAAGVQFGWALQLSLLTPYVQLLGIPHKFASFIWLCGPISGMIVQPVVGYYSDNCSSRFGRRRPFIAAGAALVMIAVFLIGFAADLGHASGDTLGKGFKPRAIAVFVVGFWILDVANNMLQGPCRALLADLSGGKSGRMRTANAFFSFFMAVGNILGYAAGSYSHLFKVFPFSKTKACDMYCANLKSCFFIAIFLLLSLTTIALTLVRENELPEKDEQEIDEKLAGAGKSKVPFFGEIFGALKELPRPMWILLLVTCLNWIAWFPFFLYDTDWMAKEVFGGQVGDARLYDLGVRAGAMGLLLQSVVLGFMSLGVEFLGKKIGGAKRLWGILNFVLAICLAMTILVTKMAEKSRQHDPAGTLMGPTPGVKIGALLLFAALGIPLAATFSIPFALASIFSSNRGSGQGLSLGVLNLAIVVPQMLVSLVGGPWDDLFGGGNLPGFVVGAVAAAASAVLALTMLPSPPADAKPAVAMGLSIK
Excerpt: Yeast cells of the strain SUSY7 (Riesmeier et al., 1992, EMBO J. 11: 4705-4713) are used to identify substances which have an inhibitory effect on sucrose transporters from potato. Cells of this strain are transformed with a cDNA sequence which codes for the sucrose transporter P62 (StSUT1) from potato (WO 94/00574, Riesmeier et al., 1993, Plant Cell 5:1591-1598) and which ensures expression of a functional transporter in the cells. The resulting yeast strain was called SUSY-7-P62 (StSUT1). The yeast cells are cultured in minimal medium (SD +2% (w/v) sucrose, pH 3.8) at 28° C. and harvested in the logarithmic phase (OD600 =0.6). The cells are spun down at 4000 rpm for 10 minutes and washed twice with SD medium. A cell concentration of c=50 g/l in SD medium is adjusted according to the wet weight of the cells, and 200 Al aliquot fractions are taken. Before the actual reaction, the cells are incubated in 10 mM glucose for 5 min and adjusted to pH 3.8 with MES buffer. The reaction is started by adding 200 Al of a 0.2 mmol/l [14C]-sucrose solution (3 mCi/mmol) in SD medium (pH 3.8). After 20, 60, 120, 180 and 240 seconds, 70 μl portions of the suspension are removed and pipetted into 4 ml of ice-cold water in order to stop the reaction. The cells are filtered off on glass fiber filters and washed twice with ice-cold water. The radioactivity on the filters is subsequently determined in a liquid scintillation counter. The substances to be tested are added 30 seconds before addition of the sucrose. The uptake of radiolabeled sucrose without addition of a potential inhibitor is determined as one control. Cells of the strain SUSY7 which are not transformed with cDNA sequences coding for a sucrose transporter from potato are employed as further control.
The various tested substances, their concentration and the activity of the transporter, shown as percentage activity of the control in which no potential inhibitors were added, are indicated.

plants = assay: Herbicidal activity on plants; type: in vivo; details: whole plants; result in words
[4] = system: sucrose transporter P62 (StSUT1); assay: Activation of sucrose transport by preincubation of the yeast cells; type: cell-based, Solanum tuberosum
Experimental: The transport of sucrose by the sucrose transporter P62 (StSUT1) from Solanum tuberosum can be increased by previous energizing of the yeast cells by incubation in glucose, stachyose and adenine. The same increase in transport activity is achieved by reducing the pH to pH 3.8 in the measurement. The measurement of transport to determine the activation takes place as described in Example 3 but the cells are incubated before the actual measurement not in 10 mM glucose for 5 min but in solutions of various concentrations of glucose, stachyose and adenine for 5 min. Yeast cells which are not incubated in solutions of these substances before the measurement act as control. The following table indicates the extent of activation of sucrose transport with various concentrations of glucose, stachyose and adenine compared with the control.

O=C(O)C1CCN1 (stereo not shown) [Azetidine-2-carboxylate]
remaining activity at 10000 µM ([1]; L-[14C]-proline uptake, tested substance 10 mM): 62%

O=C(O)[C@H]1CCCN1 [D-Proline]
remaining activity at 10000 µM [1]: 90%

O=[N+]([O-])c1ccc(O)c([N+](=O)[O-])c1 [DNP]
remaining activity at 100 µM ([2]; pH 7, read-out: Activity relative to the control [%]): 18%
remaining activity at 100 µM [3]: 3%
remaining activity at 100 µM [1]: 7.6 ± 1.6%

CN [Methylamine]
Herbicidal activity on plants (plants): herbicidal activity on plants
remaining activity at 500 µM ([2]; pH 7, [14C]-methylamine uptake, tested substance 500 μM, read-out: Activity relative to the control [%]): 40%

OC[C@H]1O[C@H](OC[C@H]2O[C@H](OC[C@H]3O[C@H](O[C@]4(CO)O[C@H](CO)[C@@H](O)[C@@H]4O)[C@H](O)[C@@H](O)[C@@H]3O)[C@H](O)[C@@H](O)[C@H]2O)[C@H](O)[C@@H](O)[C@H]1O [Stachyose]
Effect on sucrose transport as a function of concentration ([4]; preincubation of yeast cells, result in words): stimulates sucrose transport at low concentrations, while this effect is reversed at high concentrations (c>0.4 mmol/l)
Activity relative to the control [%] ([4]; sucrose transport after 5 min preincubation with the substance at c1 [0.2 mol/l], 200000 µM): 144 ± 9%
Activity relative to the control [%] ([4]; sucrose transport after 5 min preincubation with the substance at c2 [2 mmol/l]): 101 ± 8%
